In patent US20060229261A1 (priority 2005, published 2006):

Experiments:
[1] = primarily as inactive metabolites; cited from earlier work
[2] = tested on: women patients with IBS-C; details: 6 mg twice daily; cited from earlier work
[3] = tested on: patients with functional constipation; experiment: Randomized, dose escalation, placebo controlled clinical study; format: in vivo, human; details: daily diaries, dose escalation phase (25, 50, 100 mg once daily)
From the text: A randomized, dose escalation, placebo controlled study is designed to assess the efficacy of the administered formulation in 60 to 120 patients with functional constipation, defined using the Rome II criteria (modified), i.e., at least […] of two or more of the following symptoms: • i. Straining in >25% of defecations; • ii. Lumpy or hard stools in >25% of defecations; • iii. Sensation of incomplete evacuation in >25% of defecations; • iv. Sensation of anorectal obstruction/blockage in >25% of defecations; • v. Manual maneuvers to facilitate >25%, of defecations (e.g. digital evacuation, support of pelvic floor); and/or • vi. <3 evacuations per week. In addition, loose stools are not present, and there are insufficient criteria for a diagnosis of IBS. Moreover, these patients have no evidence of medical disorders that may cause constipation. Patients are symptomatic on entry in the randomization phase of the study, i.e., in the 8-14 day run-in period, on at least 8 days, which need not be consecutive, patients have lumpy or hard stools in >25% of defecations.
Patients are randomized to one of three groups:
Patients randomized to receive treatments a) or b) will receive 25 mg once daily for the first four weeks, 50 mg once daily for the following four weeks and 100 mg once daily for a further four weeks, providing the previous dose was well tolerated. […]

[4] = tested on: patients with chronic constipation; details: two trials versus placebo; cited from earlier work

C[C@H]1O[C@H](O[C@H]2[C@H](O)[C@@H](O)[C@@H](O[C@H]3[C@H](O)[C@@H](O)C(O)O[C@@H]3CO)O[C@@H]2CO)[C@H](O)[C@@H](O)[C@@H]1N[C@H]1C=C(CO)[C@@H](O)[C@H](O)[C@H]1O (stereo partly shown) [acarbose]
oral dose absorbed [1]: About 35%

CCCCCNC(=N)N/N=C/c1c[nH]c2ccc(OC)cc12.O=C(O)/C=C\C(=O)O [tegaserod, 3-(5-methoxy-1H-indol-3-ylmethylene)-N-pentylcarbazimidamide hydrogen maleate]
global and individual symptoms [2]: effectively improves global and individual symptoms

CN(C)C(=N)N=C(N)N [metformin]
patient's global impression: answer 'yes' to "do you feel better now after treatment" [3]: at least 50 % of the time

OC[C@H]1O[C@@H](O[C@@H]2[C@@H](CO)OC(O)(CO)[C@H]2O)[C@H](O)[C@@H](O)[C@H]1O (mixture of isomers) [lactulose]
stool frequency and consistency [4]: more effective than placebo
